What was measured:
Settings in all cases: 48 h
SEM cells [1] = test: cell viability relative to DMSO control; higher = less cytotoxic
Summary of the method: (§1)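 Cells were incubated for 48 h at 37°C before CellTiter-Glo One luminescence was read. The cells were NOMO1 or SEM (500 cells/well) or P12-Ichikawa (1000 cells/well) leukemia cells, adapted for at least four passages in each medium and seeded in 1536-well plates (5 μl). Dosing used library compounds in DMSO applied by pin over 11 threefold points, 47 μM to 0.79 nM. Viability is the per-plate percentage of DMSO wells, with cell-free wells as background.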

NOMO1 [2] = test: as above
Summary of the method: as §1

P12-Ichikawa [3] = test: as above
Summary of the method: as §1

SEM cells [4] = test: AUC of viability dose-response curve (% viability x log10 dose units); higher = less sensitive
Summary of the method: (§2)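 Leukemia cells adapted to each medium were seeded in 1536-well plates (500 or 1000 cells/well). They were dosed with library compounds in DMSO at 11 threefold doses, 47 μM to 0.79 nM, for 48 h at 37°C. CellTiter-Glo One luminescence was normalised per plate to DMSO and cell-free wells. Area under the curve was integrated by trapezoidal rule over log10 doses on a four-parameter log-logistic fit; curves exceeding full viability were scaled and curves failing quality control removed.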

NOMO1 [5] = test: as above
Summary of the method: as §2

P12-Ichikawa [6] = test: as above
Summary of the method: as §2

CCOC(=O)N1CCN(/[N+]([O-])=N/Oc2ccc([N+](=O)[O-])cc2C#N)CC1
cell viability [%]
Settings	NOMO1 [2]	P12-Ichikawa [3]	SEM cells [1]
HPLM + 10% dialyzed FBS, 0.000781 µM	118	97	85
HPLM + 10% dialyzed FBS, 0.00234 µM	99.3	106	88.8
HPLM + 10% dialyzed FBS, 0.00702 µM	109	108	86.5
HPLM + 10% dialyzed FBS, 0.0211 µM	110	107	91.4
HPLM + 10% dialyzed FBS, 0.0632 µM	135	106	120
HPLM + 10% dialyzed FBS, 0.19 µM	114	115	106
HPLM + 10% dialyzed FBS, 0.569 µM	117	113	109
HPLM + 10% dialyzed FBS, 1.71 µM	97.1	15.9	25.2
HPLM + 10% dialyzed FBS, 5.12 µM	39.5	9.82	15.3
HPLM + 10% dialyzed FBS, 15.4 µM	39.6	9.87	13.6
HPLM + 10% dialyzed FBS, 46.1 µM	36.1	9.31	9.4
RPMI 5 mM glucose + 10% FBS, 0.000781 µM	98.4	110	104
RPMI 5 mM glucose + 10% FBS, 0.00234 µM	97.4	115	108
RPMI 5 mM glucose + 10% FBS, 0.00702 µM	114	117	106
RPMI 5 mM glucose + 10% FBS, 0.0211 µM	105	110	109
RPMI 5 mM glucose + 10% FBS, 0.0632 µM	102	118	110
RPMI 5 mM glucose + 10% FBS, 0.19 µM	105	115	125
RPMI 5 mM glucose + 10% FBS, 0.569 µM	122	119	114
RPMI 5 mM glucose + 10% FBS, 1.71 µM	120	12.1	16
RPMI 5 mM glucose + 10% FBS, 5.12 µM	24.5	9.8	10.6
RPMI 5 mM glucose + 10% FBS, 15.4 µM	24.6	8.38	10.3
RPMI 5 mM glucose + 10% FBS, 46.1 µM	18.2	7.09	7.12
RPMI 5 mM glucose + 10% dialyzed FBS, 0.000781 µM	92.8	103	106
RPMI 5 mM glucose + 10% dialyzed FBS, 0.00234 µM	106	101	92.3
RPMI 5 mM glucose + 10% dialyzed FBS, 0.00702 µM	129	105	108
RPMI 5 mM glucose + 10% dialyzed FBS, 0.0211 µM	111	111	107
RPMI 5 mM glucose + 10% dialyzed FBS, 0.0632 µM	126	113	114
RPMI 5 mM glucose + 10% dialyzed FBS, 0.19 µM	115	108	117
RPMI 5 mM glucose + 10% dialyzed FBS, 0.569 µM	118	108	104
RPMI 5 mM glucose + 10% dialyzed FBS, 1.71 µM	108	16.4	22.4
RPMI 5 mM glucose + 10% dialyzed FBS, 5.12 µM	30.8	10.6	12.1
RPMI 5 mM glucose + 10% dialyzed FBS, 15.4 µM	24.6	9.71	12.2
RPMI 5 mM glucose + 10% dialyzed FBS, 46.1 µM	18.3	9.91	9.24

AUC of viability dose-response curve
Settings	NOMO1 [5]	P12-Ichikawa [6]	SEM cells [4]
HPLM + 10% dialyzed FBS	390	328	331
RPMI 5 mM glucose + 10% FBS	383	324	327
RPMI 5 mM glucose + 10% dialyzed FBS	382	328	331

N[S+]([O-])(=O)C1=CC=C(NC/2=C/C(=O)C3=CC=CC=C3C2=O)C=C1
cell viability [%]
Settings	NOMO1 [2]	P12-Ichikawa [3]	SEM cells [1]
HPLM + 10% dialyzed FBS, 0.000781 µM	100	102	97.3
HPLM + 10% dialyzed FBS, 0.00234 µM	126	115	106
HPLM + 10% dialyzed FBS, 0.00702 µM	111	119	109
HPLM + 10% dialyzed FBS, 0.0211 µM	132	114	108
HPLM + 10% dialyzed FBS, 0.0632 µM	119	129	115
HPLM + 10% dialyzed FBS, 0.19 µM	121	120	110
HPLM + 10% dialyzed FBS, 0.569 µM	134	123	123
HPLM + 10% dialyzed FBS, 1.71 µM	111	118	110
HPLM + 10% dialyzed FBS, 5.12 µM	93.2	117	82.6
HPLM + 10% dialyzed FBS, 15.4 µM	100	118	97.8
HPLM + 10% dialyzed FBS, 46.1 µM	85.4	115	71.3
RPMI 5 mM glucose + 10% FBS, 0.000781 µM	121	110	96.2
RPMI 5 mM glucose + 10% FBS, 0.00234 µM	123	112	103
RPMI 5 mM glucose + 10% FBS, 0.00702 µM	131	108	99.4
RPMI 5 mM glucose + 10% FBS, 0.0211 µM	151	112	98.6
RPMI 5 mM glucose + 10% FBS, 0.0632 µM	131	112	87.5
RPMI 5 mM glucose + 10% FBS, 0.19 µM	147	124	83.9
RPMI 5 mM glucose + 10% FBS, 0.569 µM	129	125	92.2
RPMI 5 mM glucose + 10% FBS, 1.71 µM	132	126	92.5
RPMI 5 mM glucose + 10% FBS, 5.12 µM	126	111	53.4
RPMI 5 mM glucose + 10% FBS, 15.4 µM	123	124	57.2
RPMI 5 mM glucose + 10% FBS, 46.1 µM	102	100	46.3
RPMI 5 mM glucose + 10% dialyzed FBS, 0.000781 µM	–	107	122
RPMI 5 mM glucose + 10% dialyzed FBS, 0.00234 µM	–	114	74.4
RPMI 5 mM glucose + 10% dialyzed FBS, 0.00702 µM	–	113	108
RPMI 5 mM glucose + 10% dialyzed FBS, 0.0211 µM	–	120	105
RPMI 5 mM glucose + 10% dialyzed FBS, 0.0632 µM	–	117	106
RPMI 5 mM glucose + 10% dialyzed FBS, 0.19 µM	–	121	120
RPMI 5 mM glucose + 10% dialyzed FBS, 0.569 µM	–	128	103
RPMI 5 mM glucose + 10% dialyzed FBS, 1.71 µM	–	124	108
RPMI 5 mM glucose + 10% dialyzed FBS, 5.12 µM	–	121	71.3
RPMI 5 mM glucose + 10% dialyzed FBS, 15.4 µM	–	131	85.3
RPMI 5 mM glucose + 10% dialyzed FBS, 46.1 µM	–	105	50.7

AUC of viability dose-response curve
Settings	NOMO1 [5]	P12-Ichikawa [6]	SEM cells [4]
HPLM + 10% dialyzed FBS	446	464	448
RPMI 5 mM glucose + 10% FBS	465	467	399
RPMI 5 mM glucose + 10% dialyzed FBS	461	459	436

— the supplement of paper PMC11451515
